Measurements taken from patent US6833358B1, “Lacrimal secretion promoters or eye drops for treating keratoconjunctival failure containing as the active ingredient natriuretic peptides” (Santen Pharmaceutical Co., Ltd., priority 1998, dated 2004).
No end group written: not given here.

Tested on: Male Japanese white rabbits
Assay: Schirmer test paper method: amount of lacrimal fluid after instillation
Assay type: in vivo, rabbit
Experimental: The Schirmer test paper method, which is used for measurement of an amount of a human lacrimal fluid, is one method of measuring a change in an amount of a lacrimal fluid of a normal animal in instilling a drug. In the present invention, an amount of a lacrimal fluid in instilling the natriuretic peptide was measured by using the Schirmer test paper method, and an effect of the natriuretic peptide on a rate of lacrimal secretion was studied.
Male Japanese white rabbits, body weight; 1.8 to 2.2 kg, were used for the experiment.
The natriuretic peptide (0.56 mg) was dissolved in sterile purified water to prepare a 0.1% solution just before using. This solution is referred to as a solution of a test drug.
The solution of the test drug (50 μl) was instilled into a left eye once. […]
Amounts of the lacrimal fluid were measured using Schirmer test paper with respect to the eye to which the drug was administered and the eye to which no drug was administered before administering the drug and after a prescribed period of time from the instillation. […] One minute later, length of a wet portion (Schirmer value, mm) of the test paper was measured from the fold. […]
The action of the solution of the test drug on the rate of the lacrimal secretion at a time of T hours after the instillation is represented by the increment of the lacrimal fluid (mm) determined by the following equation. […]

Human CNP-22: C-type natriuretic peptide (human) consisting of 22 amino acids; purchased from Peptide Research Institute (GLSKGCFGLKLDRIGSMSGLGC; ends and bridges not checked; cysteine pairing not given here; UniProt P23582 105-126, looked up)
Increment of lacrimal fluid (mm) (one hour after administering drug, 0.1% solution, 50 μl instilled once into left eye, vehicle-corrected Schirmer value, average of six samples per group): +1.33 mm
effect of promoting the lacrimal secretion (rabbits, instillation, result in words): excellent effects of promoting the lacrimal secretion
